Reference: US20230172936A1, “VCP/p97 INHIBITOR FOR THE TREATMENT OF CANCER” (Cleave Therapeutics, Inc., priority 2020, published 2023)

Tests used:
[1] = tested on: HL-60 cell line; experiment: Combination treatments, Cell Titer-Glo viability after 72 hours; assay type: cell-based, human; conditions: HL-60
Description: (§1) The additional therapeutic agents for this example were azacitidine (Cayman Chemical Cat No. 11164), decitabine (Sigma Cat No. A3656) and venetoclax (InvivoChem Cat. No. V0001).
(§2) Cell Culture: Three human acute myeloid leukemia tumor cell lines were used in this study: HL60, MV4;11 and MOLM-13. HL60 and MV4;11 were grown in IMDM base media with 20% and 10% FBS, respectively. MOLM-13 was grown in RPMI 1640 base media with 20% FBS. All culture media contained 2 mM glutamine, 100 units/mL sodium penicillin G, […] gentamicin, and 100 μg/mL streptomycin sulfate. The tumor cells were cultured in tissue culture flasks in a humidified incubator at 37° C., in an atmosphere of 5% C02 and 95% air. Assay: Tumor cells were seeded in duplicate in a volume of 100 μL/well of media into 96-well micro-culture plates at initial densities low enough to allow for several population doublings (typically three to five) during the indicated incubation period. After a 24 hour incubation, test agents were added to each well. After 72 hours of culture with test articles, cell viability was determined using the Cell Titer-Glo® (Promega G7571) assay. Briefly, Cell Titer-Glo® (Promega G7571) reagents were equilibrated at room temperature for 30 minutes; 100 μL per well was added at endpoint (72 hours). Plates were gently shaken for two minutes and then incubated at room temperature for ten minutes prior to reading luminescence on the BMG Clariostar Plus microplate reader.
(§3) An IC50 ratio for each combination was calculated from the ratio of the combination IC50 as compared to the applicable no fixed agent (vehicle) control.

[2] = tested on: MOML-13 cell line; experiment: as above; assay type: cell-based, human; conditions: MOML-13
Description: as §1, §2, §3

[3] = tested on: MV4; 11 cell line; experiment: as above; assay type: cell-based, human; conditions: MV4, 11
Description: as §1, §2, §3

[4] = tested on: 30 passage 1 (P1) models of human acute myeloid leukemia; experiment: Ex-vivo cytotoxicity by Cell Titer Glo, all models; assay type: cell-based; conditions: 144 h, single agent, 6 days, read-out: IC50s in these models
Description: (§4) Acute myelogenous leukemia (AML) is the most common acute leukemia in adults. A hematologic cancer, the disease is highly heterogeneous, with multiple subtypes. About 30% of AML cases harbor a FLT3/ITD mutation making the disease highly proliferative and more aggressive with a high risk of relapse.
(§5) Triplicate wells with media only and duplicate wells of vehicle (0.2% DMSO) were used as negative controls. […] To measure proliferation, untreated cells at days 0 and 6 were evaluated via Cell Titer Glo.
(§6) Protocol: • 1. AML cells were thawed and resuspended in enriched media composed of StemSpan™ Serum-Free Expansion Media (SFEM), 2% heat-inactivated FBS, StemSpan™ CC110 and recombinant human IL-3. • 2. 20,000 cells/well in 100 μL volume were plated on study day 0. • 3. […] Cells were incubated in the presence of drug for 6 days. • 5. On day 6, plates were removed from the incubator and equilibrated to room temperature for 20 minutes. 100 μL/well Cell Titer Glo was added to each well and incubated for 10 minutes before plate reading. • 6. Luminescence was recorded using Tecan Infinite M Plex plate reader.

[5] = tested on: CTG-2452; experiment: Ex-vivo cytotoxicity by Cell Titer Glo; assay type: cell-based; conditions: Homo sapiens, 144 h; CTG-2452, 6 days
Description: as §4, §5, §6

[6] = tested on: CTG-2702; experiment: Ex-vivo cytotoxicity by Cell Titer Glo; assay type: cell-based; conditions: Homo sapiens, 144 h; CTG-2702, 6 days
Description: as §4, §5, §6

[7] = tested on: CTG-2455; experiment: Ex-vivo cytotoxicity by Cell Titer Glo; assay type: cell-based; conditions: Homo sapiens, 144 h; CTG-2455, 6 days
Description: as §4, §5, §6

[8] = tested on: CTG-2235; experiment: Ex-vivo cytotoxicity by Cell Titer Glo; assay type: cell-based; conditions: Homo sapiens, 144 h; CTG-2235, 6 days
Description: as §4, §5, §6

[9] = tested on: CTG-2236; experiment: Ex-vivo cytotoxicity by Cell Titer Glo; assay type: cell-based; conditions: Homo sapiens, 144 h; CTG-2236, 6 days
Description: as §4, §5, §6

[10] = tested on: CTG-2229; experiment: Ex-vivo cytotoxicity by Cell Titer Glo; assay type: cell-based; conditions: Homo sapiens, 144 h; CTG-2229, 6 days
Description: as §4, §5, §6

[11] = tested on: MLL-AF9 cells; experiment: MLL-AF9 allogenic disseminated mouse model of AML; assay type: in vivo, mice; conditions: 90 mg/kg oral gavage, 4 days on/3 days off, vs vehicle
Description: Compound 1 was tested in the MLL-AF9 allogenic disseminated mouse model of AML. 200,000 MLL-AF9-cells were injected via tail vein into 6-week-old C57BL/6 male mice (The Jackson Laboratory). Starting at day 8 after cell injection, mice were treated with Compound 1 delivered through oral gavage (90 mg/kg) or vehicle (0.5% methylcellulose) on a dosing schedule of 4 days “on” (administered on each of 4 days sequentially) followed by 3 days “off” (no administration on each of 3 sequential days) for 2 full cycles (two weeks total of 4 on/3 off).
The proportion of MLL-AF9 cells in peripheral blood (n=6 mice per group) was measured at 12 days post-injection of MLL-AF9 cells using flow cytometry. Murine peripheral blood, bone marrow and spleen were collected from each organ, washed with PBS-0.1% BSA-2 mM EDTA and lysed for 10 minutes with red blood cell lysis buffer (Sigma). After two washing steps with PBS-0.1% BSA-2 mM EDTA, bone marrow cells were stained for 30 minutes at 4° C. with corresponding cell surface antibodies for CD45 (CD45 […], Invitrogen). Cells were then washed twice with PBS-0.1% BSA-2 mM EDTA before analysis of 10,000 cells gated for CD45+(high) with BD FACSCanto II (BD Biosciences) to isolate the AML blast population. Statistical significance determined using Mann-Whitney test in comparison with vehicle. Error bars represent mean±SEM. […]

[12] = Homo sapiens, 72 h, no fixed agent (vehicle), read-out: IC50
[13] = fixed agent Venetoclax+ Azacitidine - 20 nM

## Cc1cc2c(C(N)=O)cccc2n1-c1nc2c(c(NCc3ccccc3)n1)CCCN2 [Compound 1, 1-(4-(Benzylamino)-5,6,7,8-tetrahydropyrido[2,3-d]pyrimidin-2-yl)-2-methyl-1H-indole-4-carboxamide]
[1]; fixed agent Azacitidine - 5750 nM
  Combination: Monotherapy IC50 Ratio: 1.02
[1]; fixed agent Azacitidine - 9800 nM
  Combination: Monotherapy IC50 Ratio: 0.85
[1]; fixed agent Decitabine - 175 nM
  Combination: Monotherapy IC50 Ratio: 0.96
[1]; fixed agent Decitabine - 1700 nM
  Combination: Monotherapy IC50 Ratio: 1.06
[1]; fixed agent Venetoclax+ Azacitidine - 85 nM
  Combination: Monotherapy IC50 Ratio: 0.84
[1]; fixed agent Venetoclax+ Azacitidine - 475 nM
  Combination: Monotherapy IC50 Ratio: 0.84
[1]; [12]
  IC50: 305 nM
[2]; [12]
  IC50: 216 nM
[2]; fixed agent Azacitidine - 105 nM
  Combination: Monotherapy IC50 Ratio: 0.39
[2]; fixed agent Azacitidine - 850 nM
  Combination: Monotherapy IC50 Ratio: 0.39
[2]; fixed agent Decitabine - 2.5 nM
  Combination: Monotherapy IC50 Ratio: 0.56
[2]; fixed agent Decitabine - 8.5 nM
  Combination: Monotherapy IC50 Ratio: 0.30
[2]; fixed agent Venetoclax+ Azacitidine - 6.5 nM
  Combination: Monotherapy IC50 Ratio: 0.71
[2]; [13]
  Combination: Monotherapy IC50 Ratio: 0.52
[3]; [12]
  IC50: 251 nM
[3]; fixed agent Azacitidine - 500 nM
  Combination: Monotherapy IC50 Ratio: 0.46
[3]; fixed agent Azacitidine - 3150 nM
  Combination: Monotherapy IC50 Ratio: 0.47
[3]; fixed agent Decitabine - 30 nM
  Combination: Monotherapy IC50 Ratio: 0.47
[3]; fixed agent Decitabine - 215 nM
  Combination: Monotherapy IC50 Ratio: 0.36
[3]; [13]
  Combination: Monotherapy IC50 Ratio: 0.65
[3]; fixed agent Venetoclax+ Azacitidine - 50 nM
  Combination: Monotherapy IC50 Ratio: 0.47
[4]
  IC50: 200 to 800 nM
[5]
  IC50: 512 nM
[6]
  IC50: 427 nM
[7]
  IC50: 220 nM
[8]
  IC50: 362 nM
[9]
  IC50: 527 nM
[10]
  IC50: 752 nM
[11]; 2 cycles
  overall survival: improved the overall survival
[11]; 12 days post-injection
  circulating blast counts (MLL-AF9 cells in peripheral blood): reduced circulating blast counts
